Assay results taken from patent US11986450B2, “Methods and compositions for treating infection and inflammation with selenocyanate” (National Jewish Health, priority 2017, dated 2024).

Key:
[1] = tested on: Pseudomonas aeruginosa (PA01); assay: Bacterial viability (CFU) after HOSCN generation; type: cell-based; settings: 2 hrs, about 120 μM/hr
Description: FIGS. 4A-4B. […] Studies were conducted under similar conditions that generated about 120 μM/hr of either HOCl or HOSCN. (FIG. 4A) Human bronchiolar lung cells (16HBE) or (FIG. 4B) Pseudomonas aeruginosa (PA01) were treated for 2 hrs with glucose oxidase (GOX) system (generates H2O2), enzyme alone (MPO or LPO), or full system (enzyme+GOX), or full system with […]. Viability was assessed 24 hrs later by lactate dehydrogenase release for lung cells or determination of colony forming units (CFUs) for bacteria.

[2] = target: Sec-containing TrxR2 (Sec-TrxR2) (Mus musculus, UniProt Q9JLT4); assay: Inactivation of TrxR by oxidants; type: biochemical
Chain of Sec-containing TrxR2 (Sec-TrxR2) (Q9JLT4 35-524): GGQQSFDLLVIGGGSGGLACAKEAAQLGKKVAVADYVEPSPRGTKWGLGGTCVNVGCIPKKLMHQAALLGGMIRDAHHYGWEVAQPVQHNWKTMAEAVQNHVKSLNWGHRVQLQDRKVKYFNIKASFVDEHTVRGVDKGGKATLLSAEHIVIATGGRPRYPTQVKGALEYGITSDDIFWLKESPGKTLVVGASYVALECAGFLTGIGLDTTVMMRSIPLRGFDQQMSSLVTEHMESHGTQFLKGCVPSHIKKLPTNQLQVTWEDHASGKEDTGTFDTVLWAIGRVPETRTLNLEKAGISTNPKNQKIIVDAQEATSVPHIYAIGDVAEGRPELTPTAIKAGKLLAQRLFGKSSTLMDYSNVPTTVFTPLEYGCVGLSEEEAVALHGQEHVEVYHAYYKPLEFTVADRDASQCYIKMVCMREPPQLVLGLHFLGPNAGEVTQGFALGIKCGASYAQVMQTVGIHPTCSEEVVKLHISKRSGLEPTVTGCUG
Description: (§1) Based on data, it is expected that Sec-TrxR1 is able to metabolize both HOSCN and HOSeCN but not HOCl, and that Cys-TrxR's is unable to metabolize these oxidants. The active site Cys or Sec residue of each respective enzyme is oxidized to either Cys-SO2^− or Sec-SeO2^−. The Cys-TrxR cannot recover from this oxidation while the Sec-TrxR can. To test this, an inactivation assay is performed followed by structural analysis of the protein by MS. In the inactivation assay, (i) enzymes are reduced with NADPH, (ii) the enzymes are treated with oxidant followed by desalting to remove oxidant, and (iii) the enzyme is assayed for activity. […] The proteins are proteolyzed followed by LC-MS analyses. The LC-MS profiles are compared to control samples not treated with oxidant. This determines the exact mechanism of inactivation for each enzyme. […] This would explain why HOCl is highly inflammatory (nonspecific oxidation), and why HOSCN is used as a bactericide because it can rapidly inactivate proteins/enzyme by oxidation of sulfur amino acids (Cys, Met), but can be metabolized by the host cell by Sec-TrxR.

DmTrxR (containing Cys) = DmTrxR (containing Cys) (Drosophila melanogaster, UniProt P91938); assay: Inactivation of TrxR by oxidants; type: biochemical
Chain of DmTrxR (containing Cys) (P91938 112-596 limits assumed): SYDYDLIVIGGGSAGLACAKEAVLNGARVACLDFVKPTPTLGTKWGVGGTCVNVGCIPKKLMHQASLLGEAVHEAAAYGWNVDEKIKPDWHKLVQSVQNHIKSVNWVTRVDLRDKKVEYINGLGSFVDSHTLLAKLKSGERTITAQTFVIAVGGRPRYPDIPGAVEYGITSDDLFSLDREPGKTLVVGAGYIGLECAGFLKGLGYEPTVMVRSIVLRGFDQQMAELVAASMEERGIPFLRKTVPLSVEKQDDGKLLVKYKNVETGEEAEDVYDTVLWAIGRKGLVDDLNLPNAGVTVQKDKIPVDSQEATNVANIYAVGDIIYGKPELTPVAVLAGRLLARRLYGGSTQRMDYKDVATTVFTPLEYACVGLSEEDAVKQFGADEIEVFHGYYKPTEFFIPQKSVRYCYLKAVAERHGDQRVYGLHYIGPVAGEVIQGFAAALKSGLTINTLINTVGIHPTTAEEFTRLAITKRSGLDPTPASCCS
Description: as §1

P. aeruginosa: AMT0058L = assay: Viability after HOSCN exposure; settings: late disease antibiotic-resistant CF isolate
MRSA 45 = assay: Bacterial sensitivity towards HOSCN killing; type: cell-based, methicillin-resistant Staphylococcus aureus (MRSA); settings: MRSA 45, CF sputum isolate; HOSCN flux for 2 hours, GOX/LPO/SCN system, pH 7.4
Description: (§2) FIGS. 11A-11D. […] A lactoperoxidase (LPO) system was used to generate increasing fluxes of either HOSCN or HOSeCN in presence of 400 μM of either ^−SCN or ^−SeCN. LPO in the presence of a hydrogen peroxide generating system (glucose oxidase, GOX) can convert both thiocyanate and selenocyante to their respective hypopseudohalous acid species (HOSCN and HOSeCN) that are biocides. […] Bacterial inoculums (10^6 colony forming units, CFU) were incubated with host defense system for 2 hours at room temperature and bacteria were plated on LB agar plates and cell viability was determined by dilution and counting CFUs.
(§3) LPO in the presence of a hydrogen peroxide generating system (glucose oxidase, GOX) can convert both thiocyanate and selenocyante to their respective hypopseudohalous acid species (HOSCN and HOSeCN) that are biocides. […] Bacterial inoculums (10^6 colony forming units, CFU) were incubated with host defense system for 2 hours at room temperature and bacteria were plated on LB agar plates and cell viability was determined by dilution and counting CFUs. Lethal concentrations that kill 50% of bacteria (LC50) were determined by non-linear curve fitting the data.
(§4) Bacteria were incubated for 2 hour with LPO, ^−SCN or SeCN, glucose and increasing amounts of GOX. The flux (HOX) of either HOSCN or HOSeCN was determined from standard curves of GOX/LPO and either HOSCN or HOSeCN. LC50 values were determined by curve fitting the data with nonlinear regression of log (agonist) vs normalized response.

MRSA 46 = assay: Bacterial sensitivity towards HOSCN killing; type: cell-based, methicillin-resistant Staphylococcus aureus (MRSA); settings: MRSA 46, CF sputum isolate; HOSCN flux for 2 hours, GOX/LPO/SCN system, pH 7.4
Description: as §2, §3, §4

MRSA 43 = assay: Bacterial sensitivity towards HOSCN killing; type: cell-based, methicillin-resistant Staphylococcus aureus (MRSA); settings: MRSA 43, CF sputum isolate; HOSCN flux for 2 hours, GOX/LPO/SCN system, pH 7.4
Description: as §2, §3, §4

MRSA 44 = assay: Bacterial sensitivity towards HOSCN killing; type: cell-based, methicillin-resistant Staphylococcus aureus (MRSA); settings: MRSA 44, CF sputum isolate; HOSCN flux for 2 hours, GOX/LPO/SCN system, pH 7.4
Description: as §2, §3, §4

AMT-9 = assay: Bacterial sensitivity towards HOSCN killing; type: cell-based, Pseudomonas aeruginosa (PA); settings: AMT-9, CF sputum isolate; HOSCN flux for 2 hours, GOX/LPO/SCN system, pH 7.4
Description: as §2, §3, §4

PA-X = assay: Bacterial sensitivity towards HOSCN killing; type: cell-based, Pseudomonas aeruginosa (PA); settings: CF sputum isolate, HOSCN flux for 2 hours, GOX/LPO/SCN system, pH 7.4
Description: as §2, §3, §4

PA-T = assay: Bacterial sensitivity towards HOSCN killing; type: cell-based, Pseudomonas aeruginosa (PA); settings: CF sputum isolate, HOSCN flux for 2 hours, GOX/LPO/SCN system, pH 7.4
Description: as §2, §3, §4

P. aeruginosa: AMT0105L = assay: Viability after HOSCN exposure; settings: late disease antibiotic-resistant CF isolate
[3] = target: purified E. coli Cys-TrxR (Escherichia coli, UniProt P0A9P4); assay: Sulfenic acid (dimedone label) formation, western blot; type: biochemical; settings: 5 minutes exposure; reversible by NAC
Chain of purified E. coli Cys-TrxR (P0A9P4 whole entry): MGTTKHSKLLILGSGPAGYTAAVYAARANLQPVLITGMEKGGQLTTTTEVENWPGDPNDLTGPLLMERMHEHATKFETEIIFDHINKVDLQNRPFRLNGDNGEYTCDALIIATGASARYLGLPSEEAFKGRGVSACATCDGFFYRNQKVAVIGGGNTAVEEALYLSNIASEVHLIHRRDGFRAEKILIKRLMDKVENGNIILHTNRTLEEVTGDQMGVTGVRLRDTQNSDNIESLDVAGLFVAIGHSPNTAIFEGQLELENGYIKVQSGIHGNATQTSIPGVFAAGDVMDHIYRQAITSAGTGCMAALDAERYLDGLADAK
Description: FIG. 15. Western blot of sulfenic acid (dimedione label) formation on purified E. coli Cys-TrxR after 5 minutes HOSCN exposure (molar ratios label each lane) or plus 1 minute PBS or N-acetylcysteine (NAC). For lane 8, H2O2 was used instead of HOSCN.
HOSCN is an interesting oxidant due to its affinity for only very acidic thiol groups on proteins (Barrett, T. J., et al. (2012) Inactivation of thiol-dependent enzymes by hypothiocyanous acid: role of sulfenyl thiocyanate and sulfenic acid intermediates. Free Radic Biol Med 52, 1075-1085). This property of HOSCN allows it to diffuse much easier to distant targets. Cys-TrxR has two cysteine residues in its active site that are acidic and it is expected that HOSCN oxidizes them as part of its mechanism of inactivation. Data has shown that dimedone labels sulfenic acid residues in E. coli Cys-TrxR upon selective thiol oxidation by HOSCN (FIG. 15). […] This probe can be used in tandem with western blotting and LC-MS approaches to characterize thiol oxidation of bacterial Cys-TrxRs. Although previous studies have looked at potential bacteria targets for oxidative inactivation by oxidants produced by haloperoxidases, Cys-TrxR was not previously identified (Tenovuo, J., and Pruitt, K. M. (1984) Relationship of the human salivary peroxidase system to oral health. J Oral Pathol 13, 573-584).

N#CSO [HOSCN, hypothiocyanite] was tested, and the “Bacterial viability (CFU)” value [1] was “killing bacteria”, the “Inactivation of Sec-TrxR2 by oxidant” value [2] was “resists inactivation” and the “Inactivation of DmTrxR by oxidant” value (DmTrxR (containing Cys)) was “is inactivated”. The “Viability (%)” value (P. aeruginosa: AMT0058L) was 0.7 ± 0.4%, the “HOSCN IC50” value (MRSA 45) was 24 µM/h and the “HOSCN IC50” value (MRSA 46) was 10 µM/h. The “HOSCN IC50” value (MRSA 43) was 450 µM/h, the “HOSCN IC50” value (MRSA 44) was 260 µM/h and the “HOSCN IC50” value (AMT-9) was 5 µM/h. For the same compound, the “HOSCN IC50” value (PA-X) was 13 µM/h, the “HOSCN IC50” value (PA-T) was 48 µM/h and the “Viability (%)” value (P. aeruginosa: AMT0105L) was 0%. The “Oxidation of Cys-TrxR” value [3] was “rapidly oxidized”.
